Test results published in BindingDB's records for doi:10.1016/j.bmcl.2010.08.063 (Merck Research Laboratories, 2010).

Test: Positive modulation of GluR1

Row | EC50 | Compound
1 | 251 nM | O=C(Cn1nc(C(F)(F)F)c2c1CCCC2)Nc1sc2c(c1C(=O)N[C@@H]1CCNC1)CCCC2
2 | 251 nM | O=C(Cn1nc(C(F)(F)F)c2c1CCCC2)Nc1sc2c(c1CO)CCCC2
3 | 794 nM | NCc1cn(CC(=O)Nc2sc3c(c2C(N)=O)CCCC3)nc1C(F)(F)F
4 | 126 nM | CNCc1cn(CC(=O)Nc2sc3c(c2C(N)=O)CCCC3)nc1C(F)(F)F
5 | 794 nM | CCNCc1cn(CC(=O)Nc2sc3c(c2C(N)=O)CCCC3)nc1C(F)(F)F
6 | 501 nM | CN(C)Cc1cn(CC(=O)Nc2sc3c(c2C(N)=O)CCCC3)nc1C(F)(F)F
7 | 3160 nM | CC(C)NCc1cn(CC(=O)Nc2sc3c(c2C(N)=O)CCCC3)nc1C(F)(F)F
8 | 1580 nM | COCCNCc1cn(CC(=O)Nc2sc3c(c2C(N)=O)CCCC3)nc1C(F)(F)F
9 | 631 nM | CCN(CC)Cc1cn(CC(=O)Nc2sc3c(c2C(N)=O)CCCC3)nc1C(F)(F)F
10 | 631 nM | NC(=O)c1c(NC(=O)Cn2cc(CNC3CC3)c(C(F)(F)F)n2)sc2c1CCCC2
11 | 1000 nM | NC(=O)c1c(NC(=O)Cn2cc(CN3CCC3)c(C(F)(F)F)n2)sc2c1CCCC2
12 | 316 nM | CNCc1cn(CC(=O)Nc2sc3c(c2C(N)=O)CCCC3)nc1C(C)(C)C
13 | 316 nM | CN(C)Cc1cn(CC(=O)Nc2sc3c(c2C(N)=O)CCCC3)nc1C(C)(C)C
14 | 1580 nM | CC(C)(C)c1nn(CC(=O)Nc2sc3c(c2C(N)=O)CCCC3)cc1CNC1CC1
15 | 794 nM | CCNCc1cn(CC(=O)Nc2sc3c(c2C(N)=O)CCCC3)nc1C(C)(C)C
16 | 1580 nM | CC(C)NCc1cn(CC(=O)Nc2sc3c(c2C(N)=O)CCCC3)nc1C(C)(C)C
17 | 1580 nM | CNCc1cn(CCC(=O)Nc2sc3c(c2C(N)=O)CCCC3)nc1C(F)(F)F
18 | 2510 nM | CCNCc1cn(CCC(=O)Nc2sc3c(c2C(N)=O)CCCC3)nc1C(F)(F)F
19 | 2000 nM | CCN(CC)Cc1cn(CCC(=O)Nc2sc3c(c2C(N)=O)CCCC3)nc1C(F)(F)F
20 | 1000 nM | NC(=O)c1c(NC(=O)Cn2nc(C(F)(F)F)c3c2CCNC3)sc2c1CCCC2
21 | 1580 nM | CNCc1cn(CC(=O)Nc2sc3c(c2C(=O)NC)CCCC3)nc1C(F)(F)F
